Test results: US9403823B2, “Protein kinase inhibitors” (ORIBASE PHARMA, priority 2012, dated 2016)
Where two headings read alike, the source gives them in different places.

Columns and labels:
BRAF = target: T1, BRAF (Homo sapiens, UniProt P15056); test: In vitro kinase assay (Z'-LYTE), BRAF; assay type: biochemical; settings: read-out: % of inhibition of the kinase compared to the control
T1 construct: purchased Invitrogen
In short: (§1)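 Peptide/kinase mix and ATP (at apparent Km) were combined in kinase buffer with compound at 100 nM, or 10 μM against ABL and its T315I mutant. Non-phosphorylated peptide was then proteolytically cleaved, and donor-to-acceptor emission ratio gave the extent of phosphorylation.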

EGFR (ErbB1) = target: T2, EGFR (ErbB1) (Homo sapiens, UniProt P00533); test: In vitro kinase assay (Z'-LYTE), EGFR (ErbB1); assay type: biochemical; settings: read-out: % of inhibition of the kinase compared to the control
T2 construct: purchased Invitrogen
In short: as §1

EGFR (ErbB1) T790M L858R = target: T3, EGFR (ErbB1) T790M L858R (Homo sapiens, UniProt P00533, L858R/T790M); test: In vitro kinase assay (Z'-LYTE), EGFR (ErbB1) T790M L858R; assay type: biochemical; settings: read-out: % of inhibition of the kinase compared to the control
T3 construct: purchased Invitrogen
Experimental: 1) In Vitro Kinase Assays (Table 10 to Table 21)
The inhibitory activity of the compounds on several kinases including BRAF, EGFR (ErbB1), EGFR (ErbB1) T790M L858R, FGFR2, KDR (VEGFR2), PDGFRA (PDGFR alpha), SRC and other was evaluated by Invitrogen using the Z′-LYTE® technology. Briefly, the Z′-LYTE® biochemical assay employs a fluorescence-based, coupled-enzyme format and is based on the differential sensitivity of phosphorylated and non-phosphorylated peptides to proteolytic cleavage. The peptide substrate is labeled with two fluorophores—one at each end—that make up a FRET pair. A ratiometric method, which calculates the ratio (the Emission Ratio) of donor emission to acceptor emission after excitation of the donor fluorophore at 400 nm, is used to quantitate reaction progress.
The compounds are screened in 1% DMSO (final) in the well. For 10 point titrations, 3-fold serial dilutions are conducted from the starting concentration. All Peptide/Kinase Mixtures are diluted to a 2× working concentration in the appropriate Kinase Buffer. All ATP Solutions are diluted to a 4× working concentration in Kinase Buffer (50 mM HEPES pH 7.5, 0.01% BRIJ-35, 10 mM MgCl2, 1 mM EGTA). ATP Km apparent is previously determined using a Z′-LYTE® assay.
Each compound was incubated at a concentration of 100 nM (excepted to test the activity against ABL and ABL T315I for which the compounds were incubated at a concentration of 10 μM) and the tables 10 to 21 summarize the results obtained showing the inhibitory power of a compound.

FGFR2 = target: T4, FGFR2 (Homo sapiens, UniProt P21802); test: In vitro kinase assay (Z'-LYTE), FGFR2; assay type: biochemical; settings: read-out: % of inhibition of the kinase compared to the control
T4 construct: purchased Invitrogen
In short: as §1

KDR (VEGFR2) = target: T5, KDR (VEGFR2) (Homo sapiens, UniProt P35968); test: In vitro kinase assay (Z'-LYTE), KDR (VEGFR2); assay type: biochemical; settings: read-out: % of inhibition of the kinase compared to the control
T5 construct: purchased Invitrogen
In short: as §1

PDGFRA (PDGFR alpha) = target: T6, PDGFRA (PDGFR alpha) (Homo sapiens, UniProt P16234); test: In vitro kinase assay (Z'-LYTE), PDGFRA; assay type: biochemical; settings: read-out: % of inhibition of the kinase compared to the control
T6 construct: purchased Invitrogen
In short: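 Compounds at a single dose (100 nM; 10 μM for both ABL forms) were run in a fluorescence coupled-enzyme kinase format relying on differential protease sensitivity of phospho versus non-phospho peptide. Reaction progress was measured ratiometrically from the FRET pair.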

SRC = target: T7, SRC (Homo sapiens, UniProt P12931); test: In vitro kinase assay (Z'-LYTE), SRC; assay type: biochemical; settings: read-out: % of inhibition of the kinase compared to the control
T7 construct: purchased Invitrogen
In short: as §1

A549 cell line = test: In vitro cell proliferation assay (MTT), A549; assay type: cell-based; settings: Homo sapiens, read-out: EC50, anti-proliferative activity
Experimental: (§2) 2) In Vitro Cell Proliferation Assays (Table 22 to Table 35)
(§3) Cancer cell lines (5×10^3 cells per well) or HUVEC (1×10^4 cells per well) or HRMEC (1×10^4 cells per well) were distributed in 96-well plates and incubating in duplicate with escalating concentrations (10 nM to 3 μM) of compounds for 72 hr. Cell proliferation was measured using MTT (3[4,5-dimethylthiazol-2-yl]-2,5-diphenyltetrazolium bromide).

HepG2 cell line = test: In vitro cell proliferation assay (MTT), HepG2; assay type: cell-based; settings: Homo sapiens, read-out: EC50, anti-proliferative activity
In short: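 Seed cells (HRMEC 1×10^4/well; cancer lines 5×10^3/well), add compounds at escalating concentrations from 10 nM to 3 μM in duplicate, incubate 72 hr, then measure proliferation with MTT.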

HuCCT1 cell line = test: In vitro cell proliferation assay (MTT), HuCCT1; assay type: cell-based; settings: Homo sapiens, read-out: EC50, anti-proliferative activity
Experimental: as §2, §3

HuH6 Clone 5 cell line = test: In vitro cell proliferation assay (MTT), HuH6 Clone 5; assay type: cell-based; settings: read-out: EC50, anti-proliferative activity
Experimental: as §2, §3

HuH7 cell line = test: In vitro cell proliferation assay (MTT), HuH7; assay type: cell-based; settings: Homo sapiens, read-out: EC50, anti-proliferative activity
Experimental: as §2, §3

HUVEC = test: In vitro cell proliferation assay (MTT), HUVEC; assay type: cell-based; settings: Homo sapiens, read-out: EC50, anti-proliferative activity
In short: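 HUVEC cells were plated at 1×10^4 cells per well in 96-well plates and exposed in duplicate to increasing compound concentrations from 10 nM to 3 μM for 72 hr. Proliferation was then quantified with MTT (3[4,5-dimethylthiazol-2-yl]-2,5-diphenyltetrazolium bromide) to determine anti-proliferative activity.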

MDA-MB-231 cell line = test: In vitro cell proliferation assay (MTT), MDA-MB-231; assay type: cell-based; settings: Homo sapiens, MDA-MB-231, 72 h; read-out: EC50, anti-proliferative activity
Experimental: as §2, §3

HeLa cell line = test: In vitro cell proliferation assay (MTT), HeLa; assay type: cell-based; settings: Homo sapiens, 72 hr, MTT, read-out: EC50, anti-proliferative activity
Experimental: as §2, §3

HRMEC cells = test: In vitro cell proliferation assay (MTT), HRMEC; assay type: cell-based; settings: 72 h, read-out: EC50, anti-proliferative activity
Experimental: as §2, §3

HT29 cell line = test: In vitro cell proliferation assay (MTT), HT29; assay type: cell-based; settings: Homo sapiens, read-out: EC50, anti-proliferative activity
Experimental: as §2, §3

H1975 cell line = test: In vitro cell proliferation assay (MTT), H1975; assay type: cell-based; settings: Homo sapiens, NCI-H1975, 72 h; read-out: EC50, anti-proliferative activity
Experimental: as §2, §3

T2 sequence (P00533 25-1210): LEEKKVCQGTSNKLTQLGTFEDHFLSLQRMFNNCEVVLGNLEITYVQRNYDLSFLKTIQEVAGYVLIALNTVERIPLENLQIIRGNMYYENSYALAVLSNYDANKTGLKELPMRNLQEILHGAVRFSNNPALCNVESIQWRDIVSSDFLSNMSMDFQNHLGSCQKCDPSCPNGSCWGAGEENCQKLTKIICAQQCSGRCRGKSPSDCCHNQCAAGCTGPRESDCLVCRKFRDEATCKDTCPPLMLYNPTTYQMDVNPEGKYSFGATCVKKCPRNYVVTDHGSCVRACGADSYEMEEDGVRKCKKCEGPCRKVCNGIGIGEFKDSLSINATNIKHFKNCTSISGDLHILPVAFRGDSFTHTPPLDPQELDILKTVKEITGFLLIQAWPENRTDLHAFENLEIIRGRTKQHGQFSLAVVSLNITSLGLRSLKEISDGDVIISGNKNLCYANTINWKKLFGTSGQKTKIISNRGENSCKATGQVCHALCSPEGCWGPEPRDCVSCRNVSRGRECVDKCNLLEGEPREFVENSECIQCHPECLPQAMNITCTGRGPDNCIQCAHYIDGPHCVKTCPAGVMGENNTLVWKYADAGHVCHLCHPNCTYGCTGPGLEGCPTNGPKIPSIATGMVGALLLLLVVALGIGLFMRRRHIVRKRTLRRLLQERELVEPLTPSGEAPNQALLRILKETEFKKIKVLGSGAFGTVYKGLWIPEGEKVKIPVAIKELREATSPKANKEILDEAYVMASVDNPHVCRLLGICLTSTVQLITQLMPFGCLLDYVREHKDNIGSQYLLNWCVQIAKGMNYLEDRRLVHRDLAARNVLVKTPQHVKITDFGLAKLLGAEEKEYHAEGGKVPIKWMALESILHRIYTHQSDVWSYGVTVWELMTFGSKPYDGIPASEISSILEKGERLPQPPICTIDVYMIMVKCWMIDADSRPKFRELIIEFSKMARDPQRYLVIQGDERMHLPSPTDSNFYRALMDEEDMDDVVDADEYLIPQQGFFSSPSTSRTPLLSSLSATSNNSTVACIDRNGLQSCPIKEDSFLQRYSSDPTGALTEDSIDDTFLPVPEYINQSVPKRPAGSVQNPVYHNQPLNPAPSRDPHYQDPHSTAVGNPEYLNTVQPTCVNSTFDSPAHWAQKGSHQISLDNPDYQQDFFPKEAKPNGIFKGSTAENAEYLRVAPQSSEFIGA
T1 sequence (P15056 whole entry): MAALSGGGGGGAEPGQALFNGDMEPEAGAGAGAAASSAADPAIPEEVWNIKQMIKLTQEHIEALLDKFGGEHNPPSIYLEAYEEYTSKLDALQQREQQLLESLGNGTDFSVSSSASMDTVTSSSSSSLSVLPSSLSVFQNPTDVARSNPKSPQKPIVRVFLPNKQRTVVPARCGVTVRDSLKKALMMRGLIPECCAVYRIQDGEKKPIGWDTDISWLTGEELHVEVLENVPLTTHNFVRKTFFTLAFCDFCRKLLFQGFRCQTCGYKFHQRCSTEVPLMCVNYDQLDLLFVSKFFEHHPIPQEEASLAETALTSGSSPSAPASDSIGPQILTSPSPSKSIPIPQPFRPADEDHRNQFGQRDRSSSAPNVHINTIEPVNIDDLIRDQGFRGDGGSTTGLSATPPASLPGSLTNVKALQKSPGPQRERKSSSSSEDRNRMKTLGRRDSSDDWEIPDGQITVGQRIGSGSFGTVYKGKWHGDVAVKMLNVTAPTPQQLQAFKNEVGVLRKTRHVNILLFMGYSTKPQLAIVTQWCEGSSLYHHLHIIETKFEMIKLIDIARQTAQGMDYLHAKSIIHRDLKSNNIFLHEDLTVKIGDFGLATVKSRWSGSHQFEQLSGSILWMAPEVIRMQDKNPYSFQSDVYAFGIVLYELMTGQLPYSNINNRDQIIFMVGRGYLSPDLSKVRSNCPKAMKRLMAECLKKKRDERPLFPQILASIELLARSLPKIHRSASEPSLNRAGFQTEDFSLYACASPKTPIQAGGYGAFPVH
T7 sequence (P12931 whole entry): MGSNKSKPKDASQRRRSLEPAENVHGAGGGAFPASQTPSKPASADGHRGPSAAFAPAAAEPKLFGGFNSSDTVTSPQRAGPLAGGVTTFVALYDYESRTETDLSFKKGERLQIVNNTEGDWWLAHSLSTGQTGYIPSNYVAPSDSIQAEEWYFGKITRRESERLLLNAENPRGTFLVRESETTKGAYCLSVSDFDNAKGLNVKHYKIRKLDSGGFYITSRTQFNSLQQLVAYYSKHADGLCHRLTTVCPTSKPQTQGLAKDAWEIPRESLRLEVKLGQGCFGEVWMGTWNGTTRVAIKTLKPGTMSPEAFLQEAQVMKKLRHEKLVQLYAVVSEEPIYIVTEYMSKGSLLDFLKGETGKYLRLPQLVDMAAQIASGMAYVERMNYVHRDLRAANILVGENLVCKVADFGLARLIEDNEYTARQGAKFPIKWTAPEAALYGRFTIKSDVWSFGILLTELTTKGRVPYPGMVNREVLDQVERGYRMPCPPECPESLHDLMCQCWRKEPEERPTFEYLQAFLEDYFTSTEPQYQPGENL
T6 sequence (P16234 24-1089): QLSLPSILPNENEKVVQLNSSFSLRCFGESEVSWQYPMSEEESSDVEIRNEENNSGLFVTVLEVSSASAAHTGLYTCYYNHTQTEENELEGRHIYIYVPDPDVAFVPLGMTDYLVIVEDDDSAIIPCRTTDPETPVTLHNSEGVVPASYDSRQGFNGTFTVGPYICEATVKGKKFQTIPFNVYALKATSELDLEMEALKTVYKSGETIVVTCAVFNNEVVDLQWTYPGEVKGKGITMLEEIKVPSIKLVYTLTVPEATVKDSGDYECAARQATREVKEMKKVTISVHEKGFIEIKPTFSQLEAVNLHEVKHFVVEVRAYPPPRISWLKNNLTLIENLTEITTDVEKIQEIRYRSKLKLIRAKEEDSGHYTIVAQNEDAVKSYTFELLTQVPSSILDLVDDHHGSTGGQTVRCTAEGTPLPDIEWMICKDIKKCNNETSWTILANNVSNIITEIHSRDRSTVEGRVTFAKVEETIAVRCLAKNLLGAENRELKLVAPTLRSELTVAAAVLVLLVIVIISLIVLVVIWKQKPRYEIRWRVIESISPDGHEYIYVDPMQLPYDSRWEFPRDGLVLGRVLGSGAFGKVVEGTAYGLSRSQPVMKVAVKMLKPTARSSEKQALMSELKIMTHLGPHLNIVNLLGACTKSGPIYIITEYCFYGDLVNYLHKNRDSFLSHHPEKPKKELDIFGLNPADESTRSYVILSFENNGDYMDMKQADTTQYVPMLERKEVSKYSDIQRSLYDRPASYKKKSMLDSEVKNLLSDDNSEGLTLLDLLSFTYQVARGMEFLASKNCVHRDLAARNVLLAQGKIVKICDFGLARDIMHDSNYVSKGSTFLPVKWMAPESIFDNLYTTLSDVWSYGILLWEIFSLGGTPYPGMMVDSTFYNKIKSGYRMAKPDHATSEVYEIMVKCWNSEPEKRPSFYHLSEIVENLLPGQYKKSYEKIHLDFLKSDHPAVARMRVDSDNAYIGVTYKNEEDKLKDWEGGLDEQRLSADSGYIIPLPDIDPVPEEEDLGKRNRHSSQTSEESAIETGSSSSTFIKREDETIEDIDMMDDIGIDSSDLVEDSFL
T5 sequence (P35968 20-1356): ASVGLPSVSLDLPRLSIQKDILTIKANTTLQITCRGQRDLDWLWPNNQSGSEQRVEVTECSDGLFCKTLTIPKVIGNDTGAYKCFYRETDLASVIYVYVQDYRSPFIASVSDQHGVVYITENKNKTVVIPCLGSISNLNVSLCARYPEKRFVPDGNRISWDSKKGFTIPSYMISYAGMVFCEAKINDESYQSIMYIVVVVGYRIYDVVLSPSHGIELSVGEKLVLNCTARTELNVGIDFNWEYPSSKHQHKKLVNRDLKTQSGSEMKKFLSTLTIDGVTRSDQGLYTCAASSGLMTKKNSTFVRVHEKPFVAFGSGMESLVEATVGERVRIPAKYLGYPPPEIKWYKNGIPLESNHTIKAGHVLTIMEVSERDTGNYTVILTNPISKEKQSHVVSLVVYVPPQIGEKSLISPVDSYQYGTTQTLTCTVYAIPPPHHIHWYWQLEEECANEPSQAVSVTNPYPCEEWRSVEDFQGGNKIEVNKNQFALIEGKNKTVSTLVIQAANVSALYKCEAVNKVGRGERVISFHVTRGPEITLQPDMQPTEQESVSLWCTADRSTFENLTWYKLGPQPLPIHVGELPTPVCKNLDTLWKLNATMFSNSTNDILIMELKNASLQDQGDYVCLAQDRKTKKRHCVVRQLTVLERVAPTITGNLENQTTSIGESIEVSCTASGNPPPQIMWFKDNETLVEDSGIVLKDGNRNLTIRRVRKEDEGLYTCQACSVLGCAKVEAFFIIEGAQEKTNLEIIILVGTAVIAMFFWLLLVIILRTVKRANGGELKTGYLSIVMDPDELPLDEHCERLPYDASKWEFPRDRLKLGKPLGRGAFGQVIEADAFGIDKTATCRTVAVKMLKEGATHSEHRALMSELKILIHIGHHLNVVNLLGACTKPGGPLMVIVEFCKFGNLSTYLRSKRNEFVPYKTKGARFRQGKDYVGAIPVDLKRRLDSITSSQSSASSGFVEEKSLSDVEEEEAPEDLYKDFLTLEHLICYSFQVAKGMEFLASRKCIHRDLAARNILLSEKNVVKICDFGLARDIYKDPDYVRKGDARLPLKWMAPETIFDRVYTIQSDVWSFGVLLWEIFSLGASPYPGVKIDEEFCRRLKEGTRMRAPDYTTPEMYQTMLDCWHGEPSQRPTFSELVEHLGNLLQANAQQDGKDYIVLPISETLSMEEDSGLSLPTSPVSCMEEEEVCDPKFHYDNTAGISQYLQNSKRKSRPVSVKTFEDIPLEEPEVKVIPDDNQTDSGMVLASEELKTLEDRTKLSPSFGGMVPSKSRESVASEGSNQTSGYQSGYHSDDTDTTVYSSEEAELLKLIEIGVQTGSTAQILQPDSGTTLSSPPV

inhibition at 0.1 µM (BRAF) [%] | inhibition at 0.1 µM (EGFR (ErbB1)) [%] | inhibition at 0.1 µM (EGFR (ErbB1) T790M L858R) [%] | inhibition at 0.1 µM (FGFR2) [%] | inhibition at 0.1 µM (KDR (VEGFR2)) [%] | inhibition at 0.1 µM (PDGFRA (PDGFR alpha)) [%] | inhibition at 0.1 µM (SRC) [%] | EC50 (A549 cell line; A549, 72 hr, MTT) [nM] | EC50 (HepG2 cell line; HepG2, 72 hr, MTT) [nM] | EC50 (HuH6 Clone 5 cell line; HUH-6-clone5, 72 h) [nM] | EC50 (A549 cell line; A549, 72 h) [nM] | EC50 (HepG2 cell line; HepG2, 72 h) [nM] | EC50 (MDA-MB-231 cell line) [nM] | EC50 (HeLa cell line) [nM] | EC50 (HuH7 cell line; Huh-7, 72 h) [nM] | EC50 (H1975 cell line) [nM] | Compound | EC50 (HuCCT1 cell line; HuCCT-1, HuCCT1, 72 hr, MTT) [nM] | EC50 (HUVEC; 72 h) [nM] | EC50 (HRMEC cells) [nM] | other results
≥ 50 | ≥ 50 | ≥ 50 | < 50 | ≥ 50 | ≥ 50 | ≥ 50 | ≥ 1000 | ≥ 1000 | 100 to 1000 |  |  |  |  |  |  | CNC(=O)c1cc2cc(NCc3cc(NC(=O)c4ccc(CN5CCN(C)CC5)cc4)ccc3C)cnc2[nH]1 [OR0753, 5-{2-Methyl-5-[4-(4-methyl-piperazin-1-ylmethyl)-benzoylamino]-benzylamino}-1H-pyrrolo[2,3-b]pyridine-2-carboxylic acid methylamide] | ≥ 1000 |  |  | EC50 (HuH7 cell line; Huh-7, HuH7, 72 hr, MTT): ≥ 1000 nM; EC50 (HUVEC; 72 hr, MTT): ≥ 1000 nM
≥ 50 | ≥ 50 |  | ≥ 50 | ≥ 50 |  |  |  |  |  | ≤ 100 | ≤ 100 | 100 to 1000 | ≥ 1000 |  |  | CNC(=O)c1cc2cc(NCc3cc(NC(=O)c4ccc(CN5CC[C@H](N(C)C)C5)c(C(F)(F)F)c4)ccc3C)cnc2[nH]1 [OR0813, 5-{5-[4-((S)-3-Dimethylamino-pyrrolidin-1-ylmethyl)-3-trifluoromethyl-benzoylamino]-2-methyl-benzylamino}-1H-pyrrolo-[2,3-b]pyridine-2-carboxylic acid methylamide] |  | ≤ 100 | 100 to 1000 | 
≥ 50 | ≥ 50 | ≥ 50 | ≥ 50 | ≥ 50 | ≥ 50 | ≥ 50 | ≥ 1000 | ≥ 1000 |  |  |  |  |  | 100 to 1000 | 100 to 1000 | CC(=O)c1cc2cc(NC(=O)c3cc(NC(=O)c4ccc(CN5CCN(C)CC5)c(C(F)(F)F)c4)ccc3C)cnc2[nH]1 [OR0781, N-(2-Acetyl-1H-pyrrolo[2,3-b]pyridin-5-yl)-2-methyl-5-[4-(4-methyl-piperazin-1-ylmethyl)-3-trifluoromethyl-benzoylamino]-benzamide] | ≥ 1000 | 100 to 1000 |  | EC50 (HuH6 Clone 5 cell line; HUH-6-clone5, HuH6 Clone 5, 72 hr, MTT): ≥ 1000 nM; EC50 (HT29 cell line; HT-29, HT29, 72 hr, MTT): ≥ 1000 nM
≥ 50 | ≥ 50 | ≥ 50 | ≥ 50 | ≥ 50 | ≥ 50 | ≥ 50 |  |  | 100 to 1000 | 100 to 1000 | ≤ 100 | ≤ 100 | ≥ 1000 | ≤ 100 | 100 to 1000 | CNC(=O)c1cc2cc(NCc3cc(NC(=O)c4ccc(CN5CCN(C)CC5)c(C(F)(F)F)c4)ccc3C)cnc2[nH]1 [OR0751, 5-{2-Methyl-5-[4-(4-methyl-piperazin-1-ylmethyl)-3-trifluoromethyl-benzoylamino]-benzylamino}-1H-pyrrolo[2,3-b]pyridine-2-carboxylic acid methylamide] |  | ≤ 100 | ≤ 100 | EC50 (HuCCT1 cell line; HuCCT-1, 72 h): 100 to 1000 nM; EC50 (HT29 cell line; HT-29, 72 h): ≤ 100 nM
